In patent US8586108B2, “Extracts of Chenopodium ambrosioides L., the compositions comprising said extracts, the preparing process and application thereof” (Tasly Pharmaceutical Group Co., Ltd, priority 2005, dated 2013):
Marks after values point to notes of the source that are not given here.

Tests used:
[1] = tested on: acetic acid-cautery type gastric ulcer; experiment: Effect on gastric ulcer of rats induced by acetic acid cautery; type: in vivo, Wistar rats; details: 200 mg/kg i.g. once per day for 13 days; X ± SD, n = 10
Experimental: Eighty Wistar rats weighing between 200-220 g were selected in this experiment, male and female in half, and were randomly divided into 8 groups, 10 rats per group. Drugs were continually administered i.g. with the dosage listed in Table 2 for 13 days, once per day, while the model control group was administered i.g. with the same volume of vegetable oil. The model was established after 2 hours of the third administration. The rats were fasted for 24 hours before model-establishing and anaesthetized by ether, their abdomens were shaved and sterilized. A small incision was cut along the midline of the xiphoid. The stomach was gently pulled out, 10 μL 40% acetic acid was injected underneath the stomach chorion near pyloric gland areas. The stomach was then put back to the abdomen, and the incision was sewed up. Drugs were administered after operation. The rats were fasted for 24 hours after the last administration, and the animals were executed after being anaesthetized by urathane. […] After rinsing the content of stomach with saline, the stomach was fixed with 1% formaldehyde for 10 min, and then the diameters of ulcer points were measured using precise calipers and the ulcer areas were calculated. Ink was injected with a micro-syringe until its level reached the surface of gastric mucous membrane, and the volume of the injected ink was recorded. […]

[2] = tested on: gastric ulcers of pyloric ligation type; experiment: Effect on gastric ulcers of pyloric ligation type in rats; type: in vivo, Wistar rats; details: 200 mg/kg i.g. once per day for 3 days; 5 grades by Okabe's method; X ± SD, n = 10
Experimental: Eighty Wistar rats weighing about 160 g were selected in this experiment, male and female in half, and were randomly divided into 8 groups, 10 rats per group. Drugs were continually administered i.g. with the dosage listed in Table 3 for 3 days, once per day, while the model control group was administered i.g. with the same volume of vegetable oil. The animals were anaesthetized by ether after 2 hours of the last administration (the rats were fasted for 48 hours before administration), and their abdomens were shaved and sterilized. A small incision was cut below the xiphoid. Their stomach was gently pulled out, and the stomach was then put back to the abdomen after pyloric ligation, and the incision was sewed up. After operation, the rats were abstained from food and water for 6 hours and executed after anaesthesia. The abdomen was cut open, the cardia was ligated, and the whole stomach was taken out and cut open along the greater curvature of stomach. After rinsing the content of stomach with saline, the stomach was fixed with 1% formaldehyde for 10 min, and then the diameters of the ulcer points were measured using precise calipers. Degree of the ulcer was expressed by total area of all ulcer points of each rat and was classified into 5 grades according to Okabe's method as index of ulcer.

Structure (SMILES): CNC(=C[N+](=O)[O-])NCCSCc1ccc(CN(C)C)o1 [Ranitidine]
- Ulcer area [1]: 8.08 ± 5.72** mm^2
- Volumes of injected ink in ulcer region [1]: 2.85 ± 2.63 µL
- Index of Ulcer [2]: 0.8 ± 0.6
